Reference: ChEMBL document CHEMBL5030517, “6-Halopyridylmethylidene Penicillin-Based Sulfones Efficiently Inactivate the Natural Resistance of Pseudomonas aeruginosa to β-Lactam Antibiotics” (J Med Chem, 2021)
Activity calls are given as the source filed them.

Tests used:
[1] = tested on: Pseudomonas aeruginosa PAO1; experiment: Inhibition of beta-lactamase activity in Pseudomonas aeruginosa PAO1 deltadacB assessed as MIC for cefpodoxime antibacterial activity at 16 mg/L by broth microdilution method
[2] = tested on: Pseudomonas aeruginosa PAO1; experiment: Inhibition of beta-lactamase activity in Pseudomonas aeruginosa PAO1 deltadacB assessed as MIC for cefpodoxime antibacterial activity at 4 mg/L by broth microdilution method
[3] = tested on: Pseudomonas aeruginosa PAO1; experiment: Inhibition of beta-lactamase activity in Pseudomonas aeruginosa PAO1 deltadacBdeltaampD assessed as MIC for cefpodoxime antibacterial activity at 16 mg/L by broth microdilution method
[4] = tested on: Pseudomonas aeruginosa PAO1; experiment: Inhibition of beta-lactamase activity in Pseudomonas aeruginosa PAO1 deltadacBdeltaampD assessed as MIC for cefpodoxime antibacterial activity at 4 mg/L by broth microdilution method
[5] = tested on: Pseudomonas aeruginosa PAO1; experiment: Inhibition of beta-lactamase activity in Pseudomonas aeruginosa PAO1 deltadacBdeltadacC assessed as MIC for cefpodoxime antibacterial activity at 16 mg/L by broth microdilution method
[6] = tested on: Pseudomonas aeruginosa PAO1; experiment: Inhibition of beta-lactamase activity in Pseudomonas aeruginosa PAO1 deltadacBdeltadacC assessed as MIC for cefpodoxime antibacterial activity at 4 mg/L by broth microdilution method
[7] = tested on: Pseudomonas aeruginosa PAO1; experiment: Inhibition of beta-lactamase activity in Pseudomonas aeruginosa PAO1 deltadacBdeltapbpGdeltadacC assessed as MIC for cefpodoxime antibacterial activity at 16 mg/L by broth microdilution method
[8] = tested on: Pseudomonas aeruginosa PAO1; experiment: Inhibition of beta-lactamase activity in Pseudomonas aeruginosa PAO1 deltadacBdeltapbpGdeltadacC assessed as MIC for cefpodoxime antibacterial activity at 4 mg/L by broth microdilution method
[9] = tested on: Pseudomonas aeruginosa PAO1; experiment: Inhibition of beta-lactamase activity in Pseudomonas aeruginosa PAO1 deltaDdeltsDh2deltaDh3 assessed as MIC for cefpodoxime antibacterial activity at 16 mg/L by broth microdilution method
[10] = tested on: Pseudomonas aeruginosa PAO1; experiment: Inhibition of beta-lactamase activity in Pseudomonas aeruginosa PAO1 deltaDdeltsDh2deltaDh3 assessed as MIC for cefpodoxime antibacterial activity at 4 mg/L by broth microdilution method
[11] = tested on: Pseudomonas aeruginosa PAO1; experiment: Inhibition of beta-lactamase activity in Pseudomonas aeruginosa PAO1 assessed as MIC for cefpodoxime antibacterial activity at 16 mg/L by broth microdilution method
[12] = tested on: Pseudomonas aeruginosa PAO1; experiment: Inhibition of beta-lactamase activity in Pseudomonas aeruginosa PAO1 assessed as MIC for cefpodoxime antibacterial activity at 4 mg/L by broth microdilution method
[13] = tested on: Pseudomonas aeruginosa PAO1; experiment: Inhibition of beta-lactamase activity in Pseudomonas aeruginosa PAO1 deltaampD assessed as MIC for cefpodoxime antibacterial activity at 16 mg/L by broth microdilution method
[14] = tested on: Pseudomonas aeruginosa PAO1; experiment: Inhibition of beta-lactamase activity in Pseudomonas aeruginosa PAO1 deltaampD assessed as MIC for cefpodoxime antibacterial activity at 4 mg/L by broth microdilution method
[15] = tested on: Pseudomonas aeruginosa PAO1; experiment: Inhibition of beta-lactamase activity in Pseudomonas aeruginosa PAO1 deltaC assessed as MIC for cefpodoxime antibacterial activity at 16 mg/L by broth microdilution method
[16] = tested on: Pseudomonas aeruginosa PAO1; experiment: Inhibition of beta-lactamase activity in Pseudomonas aeruginosa PAO1 deltaC assessed as MIC for cefpodoxime antibacterial activity at 4 mg/L by broth microdilution method
[17] = tested on: Pseudomonas aeruginosa PAO1; experiment: Inhibition of beta-lactamase activity in Pseudomonas aeruginosa PAO1 deltaC+pUCP-(PDC-1) assessed as MIC for cefpodoxime antibacterial activity at 16 mg/L by broth microdilution method
[18] = tested on: Pseudomonas aeruginosa PAO1; experiment: Inhibition of beta-lactamase activity in Pseudomonas aeruginosa PAO1 deltaC+pUCP-(PDC-1) assessed as MIC for cefpodoxime antibacterial activity at 4 mg/L by broth microdilution method
[19] = tested on: Pseudomonas aeruginosa PAO1; experiment: Inhibition of beta-lactamase activity in Pseudomonas aeruginosa PAO1 deltaC+pUCP-(PDC-5) assessed as MIC for cefpodoxime antibacterial activity at 16 mg/L by broth microdilution method
[20] = tested on: Pseudomonas aeruginosa PAO1; experiment: Inhibition of beta-lactamase activity in Pseudomonas aeruginosa PAO1 deltaC+pUCP-(PDC-5) assessed as MIC for cefpodoxime antibacterial activity at 4 mg/L by broth microdilution method
[21] = tested on: Pseudomonas aeruginosa PAO1; experiment: Inhibition of beta-lactamase activity in Pseudomonas aeruginosa PAO1 23/14-053 (ST-309) assessed as MIC for cefpodoxime antibacterial activity at 16 mg/L by broth microdilution method
[22] = tested on: Pseudomonas aeruginosa PAO1; experiment: Inhibition of beta-lactamase activity in Pseudomonas aeruginosa PAO1 36/14-210 (ST-235) assessed as MIC for cefpodoxime antibacterial activity at 16 mg/L by broth microdilution method
[23] = tested on: Pseudomonas aeruginosa PAO1; experiment: Inhibition of beta-lactamase activity in Pseudomonas aeruginosa PAO1 53/22-113 (ST-244) assessed as MIC for cefpodoxime antibacterial activity at 16 mg/L by broth microdilution method
[24] = tested on: Pseudomonas aeruginosa PAO1; experiment: Inhibition of beta-lactamase activity in Pseudomonas aeruginosa PAO1 13/09-018 (ST-175) assessed as MIC for cefpodoxime antibacterial activity at 16 mg/L by broth microdilution method
[25] = tested on: Pseudomonas aeruginosa PAO1; experiment: Inhibition of beta-lactamase activity in Pseudomonas aeruginosa PAO1 13/09-018 (ST-175) assessed as MIC for cefpodoxime antibacterial activity at 4 mg/L by broth microdilution method
[26] = tested on: Pseudomonas aeruginosa PAO1; experiment: Inhibition of beta-lactamase activity in Pseudomonas aeruginosa PAO1 17/14-017 (ST-235) assessed as MIC for cefpodoxime antibacterial activity at 16 mg/L by broth microdilution method
[27] = tested on: Pseudomonas aeruginosa PAO1; experiment: Inhibition of beta-lactamase activity in Pseudomonas aeruginosa PAO1 17/14-017 (ST-235) assessed as MIC for cefpodoxime antibacterial activity at 4 mg/L by broth microdilution method
[28] = tested on: Pseudomonas aeruginosa PAO1; experiment: Inhibition of beta-lactamase activity in Pseudomonas aeruginosa PAO1 23/14-053 (ST-309) assessed as MIC for cefpodoxime antibacterial activity at 4 mg/L by broth microdilution method
[29] = tested on: Pseudomonas aeruginosa PAO1; experiment: Inhibition of beta-lactamase activity in Pseudomonas aeruginosa PAO1 36/14-210 (ST-235) assessed as MIC for cefpodoxime antibacterial activity at 4 mg/L by broth microdilution method
[30] = tested on: Pseudomonas aeruginosa PAO1; experiment: Inhibition of beta-lactamase activity in Pseudomonas aeruginosa PAO1 53/22-113 (ST-244) assessed as MIC for cefpodoxime antibacterial activity at 4 mg/L by broth microdilution method
[31] = tested on: Pseudomonas aeruginosa PAO1; experiment: Inhibition of beta-lactamase activity in Pseudomonas aeruginosa PAO1 6/04-224 (ST-175) assessed as MIC for cefpodoxime antibacterial activity at 16 mg/L by broth microdilution method
[32] = tested on: Pseudomonas aeruginosa PAO1; experiment: Inhibition of beta-lactamase activity in Pseudomonas aeruginosa PAO1 6/04-224 (ST-175) assessed as MIC for cefpodoxime antibacterial activity at 4 mg/L by broth microdilution method
[33] = tested on: Pseudomonas aeruginosa PAO1; experiment: Inhibition of beta-lactamase activity in Pseudomonas aeruginosa PAO1 PAHUAC-14 (ST-966) assessed as MIC for cefpodoxime antibacterial activity at 16 mg/L by broth microdilution method
[34] = tested on: Pseudomonas aeruginosa PAO1; experiment: Inhibition of beta-lactamase activity in Pseudomonas aeruginosa PAO1 PAHUAC-14 (ST-966) assessed as MIC for cefpodoxime antibacterial activity at 4 mg/L by broth microdilution method
[35] = tested on: Pseudomonas aeruginosa PAO1; experiment: Inhibition of beta-lactamase activity in Pseudomonas aeruginosa PAO1 PAHUAC-27(ST-22) assessed as MIC for cefpodoxime antibacterial activity at 16 mg/L by broth microdilution method
[36] = tested on: Pseudomonas aeruginosa PAO1; experiment: Inhibition of beta-lactamase activity in Pseudomonas aeruginosa PAO1 PAHUAC-27(ST-22) assessed as MIC for cefpodoxime antibacterial activity at 4 mg/L by broth microdilution method
[37] = Inhibition beta lactamase PDC-1 in Pseudomonas aeruginosa PAO1 assessed as apparent inhibition constant using nitrocefin as substrate measured by 96 well microtitre plate; conditions: read-out: Ki(app)
[38] = tested on: Pseudomonas aeruginosa PAO1; experiment: Inhibition beta lactamase PDC-1 in Pseudomonas aeruginosa PAO1 assessed as inactivation efficiency by measuring acylation rate (k2/K) using nitrocefin as substrate measured by 96 well microtitre plate
[39] = Inhibition beta lactamase PDC-1 in Pseudomonas aeruginosa PAO1 using nitrocefin as substrate measured by 96 well microtitre plate
[40] = tested on: Pseudomonas aeruginosa PAO1; experiment: Inhibition beta lactamase PDC-1 in Pseudomonas aeruginosa PAO1 assessed as ratio of kinact/K1 using nitrocefin as substrate measured by 96 well microtitre plate
[41] = tested on: Pseudomonas aeruginosa PAO1; experiment: Inhibition beta lactamase PDC-1 in Pseudomonas aeruginosa PAO1 assessed as deacylation off-rate using nitrocefin as substrate at 30 mins measured by 96 well microtitre plate
[42] = tested on: Pseudomonas aeruginosa PAO1; experiment: Inhibition beta lactamase PDC-1 in Pseudomonas aeruginosa PAO1 assessed as maximum rate of inactivation using nitrocefin as substrate measured by 96 well microtitre plate
[43] = tested on: Pseudomonas aeruginosa PAO1; experiment: Inhibition beta lactamase PDC-1 in Pseudomonas aeruginosa PAO1 assessed half life of nitrocefin substrate measured by 96 well microtitre plate assay
[44] = tested on: Pseudomonas aeruginosa PAO1; experiment: Inhibition of beta lactamase PDC-1 in Pseudomonas aeruginosa PAO1 assessed as reduction in enzyme activity using nitrocefin as chromogenic substrate preincubated for 10 min using 96 well microtiter plate
Pseudomonas aeruginosa = experiment: Inhibition of beta lactamase PDC-1 in Pseudomonas aeruginosa PAO1 for 30 min using MALDI TOF-MS analysis

C[C@]1(COC(=O)Cc2ccc(O)c(O)c2)[C@H](C(=O)O)N2C(=O)/C(=C/c3ccccn3)[C@H]2S1(=O)=O
16 µg/mL: MIC [29] | MIC [34]
2 µg/mL: MIC [14] | MIC [19] | MIC [20] | MIC [25] | MIC [26] | MIC [27] | MIC [33] | MIC [36]
1.5 M⁻¹ s⁻¹: k2/K inactivation efficiency [38]
4 µg/mL: MIC [10] | MIC [23]
inactive: inhibition [44] | inhibition (Pseudomonas aeruginosa)
6.1 nM: IC50 [39]
1.37 h: T1/2 [43]
0.5 µg/mL: MIC [1] | MIC [5] | MIC [7] | MIC [9]
53 nM: Ki [37]
1 µg/mL: MIC [2] | MIC [3] | MIC [6] | MIC [8] | MIC [11] | MIC [12] | MIC [13] | MIC [15] | MIC [16] | MIC [17] | MIC [18] | MIC [21] | MIC [28] | MIC [35]
8 µg/mL: MIC [4] | MIC [22] | MIC [24] | MIC [30] | MIC [31] | MIC [32]
0.046 s⁻¹: Kinact [42]
9 10^-2/min: K [41]
6.3 10^5/M/s: K [40]

C[C@]1(COC(=O)Cc2ccc(O)c(O)c2)[C@H](C(=O)O)N2C(=O)/C(=C/c3ccc(F)cn3)[C@H]2S1(=O)=O
inactive: inhibition [44] | inhibition (Pseudomonas aeruginosa)
2 µg/mL: MIC [3] | MIC [6] | MIC [19] | MIC [20] | MIC [21] | MIC [25] | MIC [28] | MIC [33] | MIC [35]
6.8 M⁻¹ s⁻¹: k2/K inactivation efficiency [38]
16 µg/mL: MIC [29]
0.5 µg/mL: MIC [1] | MIC [5] | MIC [7]
8 µg/mL: MIC [4] | MIC [10] | MIC [14] | MIC [22] | MIC [24] | MIC [30] | MIC [31] | MIC [32] | MIC [34]
1.3 h: T1/2 [43]
9 10^-2/min: K [41]
5 10^5/M/s: K [40]
1 µg/mL: MIC [2] | MIC [8] | MIC [9] | MIC [11] | MIC [12] | MIC [13] | MIC [15] | MIC [16] | MIC [17] | MIC [18]
4 µg/mL: MIC [23] | MIC [26] | MIC [27] | MIC [36]
110 nM: Ki [37]
6.3 nM: IC50 [39]
0.013 s⁻¹: Kinact [42]
